# Results from patent publication USRE47078E1, “Polymorphic forms of N-[4-(trifluoromethyl)benzyl]-4-methoxybutyramide” (Laboratorio Farmaceutico C.T. S.R.L., priority 2007, dated 2018).
# Read-outs that look alike come from different tables or passages of the source.
# Columns and labels:
# [1] = Solubility of the polymorphs at different pH (HPLC assay); type: physicochemical; settings: for solubility at 24 h / solubility at 30 min: thermodynamic from solid; for solubility at 24 h: read-out: Solubility, After 24 hours; for solubility at 30 min: read-out: Solubility, Initial evaluation
# Procedure: Both samples of powder (Form A and Form B) were used in order to evaluate the solubility properties of the two polymorphs at different pH.
# The two samples were tested in the following pH conditions: • Hydrochloric acid buffer at pH=1.2 • Acetic acid at pH=3.0 • Phosphate buffer at pH=3.0 • Phosphate buffer at pH=4.6 • Phosphate buffer at pH=6.0 • Phosphate buffer at pH=7.4 • Alkaline phosphate buffer at pH=8.0
# 0.5 g of each samples were dissolved in a glass flask using 100 ml of the appropriate buffer. The two samples were then kept under stirring for 30 minutes. If the samples were completed dissolved, 1 additional gram was added in the flask and stirred for 30 minutes. The procedure was repeated till the presence of undissolved product in the bottom of the flask. After such a dissolution procedure, the samples were stored for 24 hours and then the dissolved amounts of Form A and Form B, respectively, were determined by HPLC assay.
# [2] = Thermodynamic stability / interconversion of the polymorphs; type: physicochemical
# [3] = tested on: Sardinian Alcohol preferring rats (sP); test: Spontaneous alcohol intake in non deprived sP rats; type: in vivo, rat
# Procedure: Tests were carried out in Sardinian Alcohol preferring rats (sP), i.e. a rodent line genetically selected for their spontaneous alcohol consume. These animals were adopted as the main specific animal model in the research program due to the fact that these rats (kept in a free-choice regimen between water and a 10% ethanol solution) consume large amounts of alcohol (6-7 g/Kg/day), sharing a great preference for […] (80-100%).
# Under the standard, these rats are subjected to homecage two-bottle free choice regimen between 10% alcohol and water with unlimited access (24 h/day) and they show these features: daily intake of about 6 g/Kg of alcohol; preference ratio (alcohol solution vs total fluids) above 80%; fractioning of daily alcohol intake in 3-4 binges; achievement of BALs (Blood Alcohol Levels) above 50 mg % at each binge; induction of pharmaceutical effects (anxiolysis, motor stimulation) and regulation by a central, hedonic set-point mechanism.
# 1. Spontaneous Alcohol Intake in Non Deprived sP Rats
# According to this model, the alcohol intake in a two bottles free-choice regimen represents the “active drinking” phase of human alcoholism. Therefore the tested active compounds should decrease the propension of rats to consume alcohol. […] In FIG. 8A the results of a single experiment are shown. Specifically 10, 20, 25 and 50 mg/kg doses of polymorphic Form A were administered and the alcohol intake was evaluated.
# rats = test: Irwin's test and body temperature in rats; type: in vivo, rat
# Procedure: (§1) The possible adverse effects of polymorphic Form A on the CNS, cardiovascular, respiratory and immune functions were evaluated in vitro and in vivo (rats and dogs) in different experimental models. In the in vivo tests, the tested compound was always given by single oral administration at the doses of 100, 300 and 1000 mg/kg.
# Neurobehavioural effects of polymorphic Form A have been investigated according to the Irwin Test by using a standard observation battery, which allows the assessment of both peripheral and central nervous system activities (e.g. motor activity, motor co-ordination, somatic sensory/motor reflex responses, autonomic responses); body temperature was measured by means of an electronic thermometer.
# [4] = tested on: isolated canine Purkinje fibres; test: Cardiac action potential in isolated canine Purkinje fibres
# Procedure: A possible adverse effect induced by polymorphic Form A on cardiac action potential was evaluated in isolated canine Purkinje fibres. Transmembrane action potential was measured by means of the intracellular microelectrode technique; this method is recommended to detect the capacity of a substance to induce prolongation of the QT interval.
# conscious rats = test: Respiratory evaluation in conscious rats (whole body plethysmography); type: in vivo, rat
# Procedure: as §1
# The effect of polymorphic Form A on respiratory parameters (respiratory rate, peak inspiratory and peak expiratory flows, inspiration and expiration times, airway resistance index, minute volume and tidal volume) was assessed in conscious rats after single oral administration. Respiration was measured by the whole body plethysmography method.
# immune system = test: PCF test (Plaque Forming Cells) in rats; type: in vivo, rat
# Procedure: A possible effect of polymorphic Form A on the immune system was evaluated by using the method system of Plaque Forming Cells (PCF) in the rat, following oral administration to rats for 28 days at the doses of 150, 250 and 500 mg/kg. The method is based on the stimulation of the immune system with an antigenic agent (sheep's red blood cells) and on the evaluation of the effect of the test item on the immune response. The immune response was assessed by measuring the proportion of splenocytes which produced antibodies against the antigenic agent (Plaque Forming Cells) in presence of complement. […] In fact, statistical analysis evidenced a significativity at 150 mg/kg, but not at 250 mg/kg; these findings might indicate that the effects is observed at these doses could be due to the variability normally present in this test as heterogeneity in immune response is often seen and it is likely to be related to individual differences in immune sensitivity, […]
# Acute toxicity in mouse = settings: in vivo, single
# Procedure: (§2) Single and repeated-dose toxicity studies in rodents and non-rodents were carried out to support the clinical trials of the test compound, i.e. polymorphic Form A. Single toxicity studies were performed in mice and rats by the intraperitoneal and the oral routes. Repeated oral studies (28 days administration followed by 14 days recovery period) were performed in rats and dogs.
# Acute toxicity in rat = settings: in vivo, single
# Procedure: as §2
# Salmonella typhimurium = test: Salmonella Typhimurium Reverse Mutation Assay (Ames test); type: cell-based
# Procedure: The mutagenic potential of polymorphic Form A was evaluated in vitro in the Salmonella Typhimurium Reverse Mutation Assay according to EC guidelines. […] Therefore polymorphic Form A is to be considered non-mutagenic in this Salmonella typhimurium reverse mutation assay.
# [5] = acetic acid, pH 3, aqueous buffer, pH 3.0 (acetic acid)
# [6] = alkaline phosphate buffer, pH 8, aqueous buffer, pH 8.0
# [7] = buffer at pH 6.8 (buffer type not named for this pH), pH 6.8, aqueous buffer, pH 6.8
# [8] = hydrochloric acid buffer, pH 1.2, simulated gastric fluid, pH 1.2
# [9] = phosphate buffer, pH 3, aqueous buffer, pH 3.0 (phosphate buffer)
# [10] = phosphate buffer, pH 4.6, aqueous buffer, pH 4.6
# [11] = phosphate buffer, pH 6, aqueous buffer, pH 6.0
# [12] = phosphate buffer, pH 7.4, aqueous buffer, pH 7.4
structure (smiles),measurement,setting,value
"COCCCC(=O)NCc1ccc(C(F)(F)F)cc1 [Polymorphic Form A, N-[4-(trifluoromethyl)benzyl]-4-methoxybutyramide]",solubility at 24 h,[1]; [5],160 µg/mL
same,solubility at 30 min,[1]; [5],124 µg/mL
same,solubility at 24 h,[1]; [6],142 µg/mL
same,solubility at 30 min,[1]; [6],134 µg/mL
same,solubility at 24 h,[1]; [7],164 µg/mL
same,solubility at 30 min,[1]; [7],106 µg/mL
same,Differences in solubility / dissolution properties between the two forms,[1]; dissolution tests on each polymorph,have not shown differences in the solubility properties
same,solubility at 24 h,[1]; [8],160 µg/mL
same,solubility at 30 min,[1]; [8],153 µg/mL
same,solubility at 24 h,[1]; [9],151 µg/mL
same,solubility at 30 min,[1]; [9],116 µg/mL
same,solubility at 24 h,[1]; [10],145 µg/mL
same,solubility at 30 min,[1]; [10],132 µg/mL
same,solubility at 24 h,[1]; [11],140 µg/mL
same,solubility at 30 min,[1]; [11],118 µg/mL
same,solubility at 24 h,[1]; [12],140 µg/mL
same,solubility at 30 min,[1]; [12],117 µg/mL
same,solubility at 24 h,"[1]; water, Water",164 µg/mL
same,solubility at 30 min,"[1]; water, Water",138 µg/mL
same,"Thermodynamic stability, conversion of one form into the other",[2],"thermodynamically stable, with no conversion of one into the other"
same,Alcohol intake,"[3]; 10 mg/kg, single experiment of FIG. 8A",significantly reduced alcohol intake
same,Alcohol intake,"[3]; 10-100 mg/kg, intragastric acute administration",decreases the alcohol intake
same,Food intake,"[3]; sP rats, data not reported",normal food intake
same,Water intake,"[3]; sP rats, data not reported",compensatory increase of water intake
same,Body temperature,rats; 100 mg/kg single oral,not affected
same,Spontaneous locomotor activity (Irwin test),rats; 100 mg/kg single oral,transient decrease in spontaneous locomotor activity
same,Posture / neurobehavioural signs (Irwin test),"rats; 1000 mg/kg single oral, all the effects were reversible","tip toe position, ataxic and subsequently a lying recumbent or flattened position"
same,Effect on locomotion (Irwin test),"rats; higher doses (300 and 1000 mg/kg) single oral, with myorelaxant effect and decrease in awareness",more marked and more long lasting
same,Body temperature,"rats; higher doses (300 and 1000 mg/kg), up to four hours",significant decrease in body temperature
same,Action potential duration of repolarisation,[4]; 10^−4 M,significant decrease in action potential duration of repolarisation
same,Action potential parameters,"[4]; 10^−7, 10^−6 and 10^−5 M, normal or low stimulation rates",no statistically significant effect
same,Early or delayed after-depolarisation,[4]; all the concentrations tested,neither early nor delayed after-depolarisation were recorded
same,Respiratory parameters,conscious rats; 100 mg/kg single oral,no relevant effect on respiratory parameters
same,"Peak inspiratory and peak expiratory flows, minute volume, airway resistance index","conscious rats; 100, 300 and 1000 mg/kg single oral",No statistically change
same,Respiratory rate and tidal volume,conscious rats; 300 and 1000 mg/kg single oral,tachypnoea associated to a transient reduction in tidal volume
same,Immunosuppressant activity (Plaque Forming Cells),"immune system; 500 mg/kg oral, 28 days",clear-cut
same,Immunosuppressant activity (Plaque Forming Cells),"immune system; 150 and 250 mg/kg oral, 28 days",comparable borderline effect
same,Immunosuppressant activity (Plaque Forming Cells),"immune system; oral, 28 days, 150, 250 and 500 mg/kg",slight and not dose-dependent immunosuppressant activity
same,LD50,"Acute toxicity in mouse; ip, dose-range 200-1000",~800 mg/kg
same,LD50,"Acute toxicity in mouse; oral, os, dose-range 2000-4000",> 4000 mg/kg
same,LD50,"Acute toxicity in rat; ip, dose-range 200-1000",~800 mg/kg
same,LD50,"Acute toxicity in rat; oral, os, dose-range 2000-4000",> 4000 mg/kg
same,"Genotoxicity, Ames test result","Salmonella typhimurium; S. typhimurium, in vitro, 3-500 μg/ml",Negative
same,Gene mutations by base pair changes or frameshifts,"Salmonella typhimurium; TA 1535, TA 1537, TA 98, TA 100, TA102, 50 to 3000 μg/ml, with and without metabolic activation",did not induce gene mutations
